Test results: patent US6355799B1, “Substituted benzene compounds, process for their preparation, and herbicidal and defoliant compositions containing them” (ISK Americas Incorporated, priority 1997, dated 2002)

How the values were obtained:
Type in all cases: in vivo
[1] = system: redroot pigweed (Amaranthus retroflexus, AMARE); assay: Pre-emerge test, greenhouse herbicide activity screening; settings: rating scale 0-100, 14 days after application
How it was run: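 Plants grown in 10 cm pots of sandy loam mix received acetone-dissolved compounds through a moving flat-fan nozzle. Doses ranged from 15 to 1000 g ai/ha. Pre-emerge pots were seeded one day earlier, post-emerge pots 8–21 days earlier. Fourteen days on, each pot was graded 0–100 for damage.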

[2] = system: barnyardgrass (Echinochloa crus-galli, ECHCG); assay: as above; settings: rating scale 0-100, 14 days after application
How it was run: (§1)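 Compounds in acetone were track-sprayed at 187 l/ha, 15–1000 g ai/ha, onto sandy loam pots. Pre-emerge seeds were sown one day before spraying, with surface watering afterwards. Post-emerge plants were at the 2–3 leaf stage and sprayed with 0.25% v/v non-ionic surfactant. Injury was rated 0–100 at 14 days.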

[3] = system: common ragweed (Ambrosia artemisizfolia L., AMBEL); assay: as above; settings: rating scale 0-100, 14 days after application
How it was run: as §1

[4] = system: green foxtail (Setaria viridis, SETVI); assay: as above; settings: rating scale 0-100, 14 days after application
How it was run: as §1

[5] = system: ivyleaf morningglory (Ipomoea hederacea, IPOHE); assay: as above; settings: rating scale 0-100, 14 days after application
How it was run: as §1

[6] = system: johnsongrass (Sorghum halepense, SORHA); assay: as above; settings: rating scale 0-100, 14 days after application
How it was run: as §1

[7] = system: lambsquarters (Chenopodium album, CHEAL); assay: as above; settings: rating scale 0-100, 14 days after application
How it was run: as §1

[8] = system: large crabgrass (Digitaria sanguinalis, DIGSA); assay: as above; settings: rating scale 0-100, 14 days after application
How it was run: as §1

[9] = system: sicklepod (Cassia obtusifolia, CASOB); assay: as above; settings: rating scale 0-100, 14 days after application
How it was run: as §1

[10] = system: velvetleaf (Abutilon theophrasti, ABUTH); assay: as above; settings: rating scale 0-100, 14 days after application
How it was run: as §1

[11] = system: field corn (Zea mays L., var. Dekalb 535, CORN); assay: Pre-emerge test, crop safety; settings: rating scale 0-100, 14 days after application
How it was run: (§2)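 Sandy loam pots; pre-emerge: sown 1 d pre-spray, surface-watered after, then bottom-watered. Post-emerge: sown 8–21 d before, 2–3 leaf stage, + 0.25% v/v NIS, bottom-watered. Acetone, 187 l/ha track spray, 15–1000 g ai/ha. 0–100 injury score, day 14.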

[12] = system: upland rice (Oryza sp., var. Tebonnet, RICE); assay: Pre-emerge test, crop safety; settings: rating scale 0-100, 14 days after application
How it was run: as §2

[13] = system: barnyardgrass (Echinochloa crus-galli, ECHCG); assay: Post-emerge test, greenhouse herbicide activity screening; settings: rating scale 0-100 (0 no damage, 100 complete death), 14 days after application
How it was run: as §1

[14] = system: green foxtail (Setaria viridis, SETVI); assay: as above; settings: rating scale 0-100 (0 no damage, 100 complete death), 14 days after application
How it was run: as §1

[15] = system: ivyleaf morningglory (Ipomoea hederacea, IPOHE); assay: as above; settings: rating scale 0-100 (0 no damage, 100 complete death), 14 days after application
How it was run: as §1

[16] = system: johnsongrass (Sorghum halepense, SORHA); assay: as above; settings: rating scale 0-100 (0 no damage, 100 complete death), 14 days after application
How it was run: as §1

[17] = system: lambsquarters (Chenopodium album, CHEAL); assay: as above; settings: rating scale 0-100 (0 no damage, 100 complete death), 14 days after application
How it was run: as §1

[18] = system: large crabgrass (Digitaria sanguinalis, DIGSA); assay: as above; settings: rating scale 0-100 (0 no damage, 100 complete death), 14 days after application
How it was run: as §1

[19] = system: redroot pigweed (Amaranthus retroflexus, AMARE); assay: as above; settings: rating scale 0-100 (0 no damage, 100 complete death), 14 days after application
How it was run: as §1

[20] = system: sicklepod (Cassia obtusifolia, CASOB); assay: as above; settings: rating scale 0-100 (0 no damage, 100 complete death), 14 days after application
How it was run: as §1

[21] = system: velvetleaf (Abutilon theophrasti, ABUTH); assay: as above; settings: rating scale 0-100 (0 no damage, 100 complete death), 14 days after application
How it was run: as §1

[22] = system: field corn (Zea mays L., var. Dekalb 535, CORN); assay: Post-emerge test, crop safety; settings: rating scale 0-100 (0 no damage, 100 complete death), 14 days after application
How it was run: as §1

[23] = system: upland rice (Oryza sp., var. Tebonnet, RICE); assay: Post-emerge test, crop safety; settings: rating scale 0-100 (0 no damage, 100 complete death), 14 days after application
How it was run: as §1

SMILES: CCOC(=O)CCc1c(OC)c(Cl)cc(F)c1-n1c(=O)cc(C(F)(F)F)n(C)c1=O [14-1]
- Pre-emerge herbicidal activity, phytotoxicity rating AMARE ([1]; 63 g ai/ha): 100
- Pre-emerge herbicidal activity, phytotoxicity rating AMARE ([1]; 250 g ai/ha): 100
- Pre-emerge herbicidal activity, phytotoxicity rating ECHCG ([2]; 63 g ai/ha): 15
- Pre-emerge herbicidal activity, phytotoxicity rating ECHCG ([2]; 250 g ai/ha): 30
- Pre-emerge herbicidal activity, phytotoxicity rating AMBEL ([3]; 63 g ai/ha): 0
- Pre-emerge herbicidal activity, phytotoxicity rating AMBEL ([3]; 250 g ai/ha): 0
- Pre-emerge herbicidal activity, phytotoxicity rating SETVI ([4]; 63 g ai/ha): 15
- Pre-emerge herbicidal activity, phytotoxicity rating SETVI ([4]; 250 g ai/ha): 55
- Pre-emerge herbicidal activity, phytotoxicity rating IPOHE ([5]; 63 g ai/ha): 30
- Pre-emerge herbicidal activity, phytotoxicity rating IPOHE ([5]; 250 g ai/ha): 75
- Pre-emerge herbicidal activity, phytotoxicity rating SORHA ([6]; 63 g ai/ha): 0
- Pre-emerge herbicidal activity, phytotoxicity rating SORHA ([6]; 250 g ai/ha): 90
- Pre-emerge herbicidal activity, phytotoxicity rating CHEAL ([7]; 63 g ai/ha): 98
- Pre-emerge herbicidal activity, phytotoxicity rating CHEAL ([7]; 250 g ai/ha): 100
- Pre-emerge herbicidal activity, phytotoxicity rating DIGSA ([8]; 63 g ai/ha): 40
- Pre-emerge herbicidal activity, phytotoxicity rating DIGSA ([8]; 250 g ai/ha): 85
- Pre-emerge herbicidal activity, phytotoxicity rating CASOB ([9]; 63 g ai/ha): 0
- Pre-emerge herbicidal activity, phytotoxicity rating CASOB ([9]; 250 g ai/ha): 0
- Pre-emerge herbicidal activity, phytotoxicity rating ABUTH ([10]; 63 g ai/ha): 75
- Pre-emerge herbicidal activity, phytotoxicity rating ABUTH ([10]; 250 g ai/ha): 100
- Pre-emerge phytotoxicity rating, crop damage CORN ([11]; 63 g ai/ha): 0
- Pre-emerge phytotoxicity rating, crop damage CORN ([11]; 250 g ai/ha): 10
- Pre-emerge phytotoxicity rating, crop damage RICE ([12]; 63 g ai/ha): 15
- Pre-emerge phytotoxicity rating, crop damage RICE ([12]; 250 g ai/ha): 45
- Post-emerge Herbicidal Activity, phytotoxicity rating ECHCG ([13]; Rate 63 g ai/ha): 85
- Post-emerge Herbicidal Activity, phytotoxicity rating ECHCG ([13]; Rate 250 g ai/ha): 95
- Post-emerge Herbicidal Activity, phytotoxicity rating SETVI ([14]; Rate 63 g ai/ha): 40
- Post-emerge Herbicidal Activity, phytotoxicity rating SETVI ([14]; Rate 250 g ai/ha): 70
- Post-emerge Herbicidal Activity, phytotoxicity rating IPOHE ([15]; Rate 63 g ai/ha): 85
- Post-emerge Herbicidal Activity, phytotoxicity rating IPOHE ([15]; Rate 250 g ai/ha): 100
- Post-emerge Herbicidal Activity, phytotoxicity rating SORHA ([16]; Rate 63 g ai/ha): 25
- Post-emerge Herbicidal Activity, phytotoxicity rating SORHA ([16]; Rate 250 g ai/ha): 75
- Post-emerge Herbicidal Activity, phytotoxicity rating CHEAL ([17]; Rate 63 g ai/ha): 80
- Post-emerge Herbicidal Activity, phytotoxicity rating CHEAL ([17]; Rate 250 g ai/ha): 98
- Post-emerge Herbicidal Activity, phytotoxicity rating DIGSA ([18]; Rate 63 g ai/ha): 80
- Post-emerge Herbicidal Activity, phytotoxicity rating DIGSA ([18]; Rate 250 g ai/ha): 95
- Post-emerge Herbicidal Activity, phytotoxicity rating AMARE ([19]; Rate 63 g ai/ha): 100
- Post-emerge Herbicidal Activity, phytotoxicity rating AMARE ([19]; Rate 250 g ai/ha): 100
- Post-emerge Herbicidal Activity, phytotoxicity rating CASOB ([20]; Rate 63 g ai/ha): 55
- Post-emerge Herbicidal Activity, phytotoxicity rating CASOB ([20]; Rate 250 g ai/ha): 70
- Post-emerge Herbicidal Activity, phytotoxicity rating ABUTH ([21]; Rate 63 g ai/ha): 85
- Post-emerge Herbicidal Activity, phytotoxicity rating ABUTH ([21]; Rate 250 g ai/ha): 98
- Post-emerge phytotoxicity rating CORN (crop damage) ([22]; Rate 63 g ai/ha): 85
- Post-emerge phytotoxicity rating CORN (crop damage) ([22]; Rate 250 g ai/ha): 100
- Post-emerge phytotoxicity rating RICE (crop damage) ([23]; Rate 63 g ai/ha): 40
- Post-emerge phytotoxicity rating RICE (crop damage) ([23]; Rate 250 g ai/ha): 80
